In PubChem BioAssay AID1259407 (Chemical Carcinogenesis Research Information System (CCRIS), 2018):
Calls of active or inactive are those of the source. How the calls were made is not given here.

System: CCRIS mutagenicity, Ames/micronucleus/aberration tests
Test: CCRIS mutagenicity studies
[1] = Test System: AMES SALMONELLA TYPHIMURIUM, Strain/Indicator: TA98, Metabolic Activation: NONE, Method: STANDARD PLATE
[2] = Test System: AMES SALMONELLA TYPHIMURIUM, Strain/Indicator: TA100, Metabolic Activation: NONE, Method: STANDARD PLATE

Measured: mutagenic call

COc1ccc(C(=O)N2CCN(c3ccc4c(c3)CCC(=O)N4)CC2)cc1OC
inactive: Test System: AMES SALMONELLA TYPHIMURIUM, Strain/Indicator: TA97, Metabolic Activation: NONE, Method: STANDARD PLATE inactive; negative | Test System: AMES SALMONELLA TYPHIMURIUM, Strain/Indicator: TA97, Metabolic Activation: S-9, Method: STANDARD PLATE inactive; negative | Test System: AMES SALMONELLA TYPHIMURIUM, Strain/Indicator: TA98, Metabolic Activation: NONE, Method: PREINCUBATION inactive; negative | [1] inactive; negative | Test System: AMES SALMONELLA TYPHIMURIUM, Strain/Indicator: TA98, Metabolic Activation: RAT, LIVER, S-9, Method: PREINCUBATION inactive; negative | Test System: AMES SALMONELLA TYPHIMURIUM, Strain/Indicator: TA98, Metabolic Activation: S-9, Method: STANDARD PLATE inactive; negative | Test System: AMES SALMONELLA TYPHIMURIUM, Strain/Indicator: TA100, Metabolic Activation: NONE, Method: PREINCUBATION inactive; negative | [2] inactive; negative | Test System: AMES SALMONELLA TYPHIMURIUM, Strain/Indicator: TA100, Metabolic Activation: RAT, LIVER, S-9, Method: PREINCUBATION inactive; negative | Test System: AMES SALMONELLA TYPHIMURIUM, Strain/Indicator: TA102, Metabolic Activation: NONE, Method: STANDARD PLATE inactive; negative | Test System: AMES SALMONELLA TYPHIMURIUM, Strain/Indicator: TA102, Metabolic Activation: S-9, Method: STANDARD PLATE inactive; negative | Test System: AMES SALMONELLA TYPHIMURIUM, Strain/Indicator: TA1535, Metabolic Activation: NONE, Method: PREINCUBATION inactive; negative | Test System: AMES SALMONELLA TYPHIMURIUM, Strain/Indicator: TA1535, Metabolic Activation: RAT, LIVER, S-9, Method: PREINCUBATION inactive; negative | Test System: AMES SALMONELLA TYPHIMURIUM, Strain/Indicator: TA1537, Metabolic Activation: NONE, Method: PREINCUBATION inactive; negative | Test System: AMES SALMONELLA TYPHIMURIUM, Strain/Indicator: TA1537, Metabolic Activation: RAT, LIVER, S-9, Method: PREINCUBATION inactive; negative | Test System: AMES SALMONELLA TYPHIMURIUM, Strain/Indicator: TA1538, Metabolic Activation: NONE, Method: PREINCUBATION inactive; negative | Test System: AMES SALMONELLA TYPHIMURIUM, Strain/Indicator: TA1538, Metabolic Activation: RAT, LIVER, S-9, Method: PREINCUBATION inactive; negative | Test System: E. COLI, Strain/Indicator: WP2 UVRA, Metabolic Activation: NONE, Method: PREINCUBATION inactive; negative | Test System: E. COLI, Strain/Indicator: WP2 UVRA, Metabolic Activation: RAT, LIVER, S-9, Method: PREINCUBATION inactive; negative

O=C1OC2(c3cc(Br)c(O)c(Br)c3Oc3c2cc(Br)c(O)c3Br)c2c(Cl)ccc(Cl)c21
inactive: End Point: IN VIVO MICRONUCLEUS, Test System: BONE MARROW POLYCHROMATIC ERYTHROCYTES, Species: MOUSE, Strain/Sex: DDY/MALE, Route: IP inactive; negative

O=C1CC(c2ccc(O)cc2)Oc2cc(O)cc(O)c21 (stereo not given)
inactive: Test System: AMES SALMONELLA TYPHIMURIUM, Strain/Indicator: TA98, Metabolic Activation: HAMSTER, LIVER, S-9, AROCLOR 1254, Method: STANDARD PLATE inactive; negative | [1] inactive; negative | Test System: AMES SALMONELLA TYPHIMURIUM, Strain/Indicator: TA98, Metabolic Activation: RAT, LIVER, S-9, AROCLOR 1254, Method: STANDARD PLATE inactive; negative | Test System: AMES SALMONELLA TYPHIMURIUM, Strain/Indicator: TA100, Metabolic Activation: HAMSTER, LIVER, S-9, AROCLOR 1254, Method: STANDARD PLATE inactive; negative | [2] inactive; negative | Test System: AMES SALMONELLA TYPHIMURIUM, Strain/Indicator: TA100, Metabolic Activation: RAT, LIVER, S-9, AROCLOR 1254, Method: STANDARD PLATE inactive; negative | Test System: AMES SALMONELLA TYPHIMURIUM, Strain/Indicator: TA1535, Metabolic Activation: HAMSTER, LIVER, S-9, AROCLOR 1254, Method: STANDARD PLATE inactive; negative | Test System: AMES SALMONELLA TYPHIMURIUM, Strain/Indicator: TA1535, Metabolic Activation: NONE, Method: STANDARD PLATE inactive; negative | Test System: AMES SALMONELLA TYPHIMURIUM, Strain/Indicator: TA1535, Metabolic Activation: RAT, LIVER, S-9, AROCLOR 1254, Method: STANDARD PLATE inactive; negative | Test System: AMES SALMONELLA TYPHIMURIUM, Strain/Indicator: TA1537, Metabolic Activation: HAMSTER, LIVER, S-9, AROCLOR 1254, Method: STANDARD PLATE inactive; negative | Test System: AMES SALMONELLA TYPHIMURIUM, Strain/Indicator: TA1537, Metabolic Activation: NONE, Method: STANDARD PLATE inactive; negative | Test System: AMES SALMONELLA TYPHIMURIUM, Strain/Indicator: TA1537, Metabolic Activation: RAT, LIVER, S-9, AROCLOR 1254, Method: STANDARD PLATE inactive; negative | Test System: AMES SALMONELLA TYPHIMURIUM, Strain/Indicator: TA1538, Metabolic Activation: HAMSTER, LIVER, S-9, AROCLOR 1254, Method: STANDARD PLATE inactive; negative | Test System: AMES SALMONELLA TYPHIMURIUM, Strain/Indicator: TA1538, Metabolic Activation: NONE, Method: STANDARD PLATE inactive; negative | Test System: AMES SALMONELLA TYPHIMURIUM, Strain/Indicator: TA1538, Metabolic Activation: RAT, LIVER, S-9, AROCLOR 1254, Method: STANDARD PLATE inactive; negative
